# From ChEMBL document CHEMBL5346901, “Discovery of potent Plasmodium falciparum protein kinase 6 (PfPK6) inhibitors with a type II inhibitor pharmacophore” (Eur J Med Chem, 2023)
# Active and inactive are the calls of the source. The rule behind the calls is not given here.
# Assays:
# Plasmodium falciparum [1] = test: Antimalarial activity against blood stage Plasmodium falciparum 3D7 assessed as reduction in parasite growth incubated for 72 hrs by SYBR Green dye based fluorescence assay; type: functional, organism-based; settings: for EC50: 3D7, 72 h
# HepG2 [2] = test: Cytotoxicity against human HepG2 cells assessed as reduction in cell viability by CellTiter-Glo assay; type: toxicity, cell-based
# Plasmodium berghei = test: Antimalarial activity against liver stage Plasmodium berghei ANKA sporozoites in human HepG2 cells assessed as reduction in parasite load measured after 44 hrs by […] reagent based […] analysis; type: functional, organism-based
# HepG2 [3] = test: Cytotoxicity against human HepG2 cells infected with liver stage Plasmodium berghei ANKA sporozoites assessed as reduction in cell viability measured after 44 hrs by […] assay; type: toxicity, cell-based; settings: hepg2, 44 h
# [4] = Kinetic solubility of the compound at pH 7.4; type: physicochemical; settings: buffer, read-out: Kinetic_solubility
# [5] = Apparent permeability of compound by PAMPA assay; type: ADME
# [6] = Microsomal stability in human liver microsomes assessed as parent compound remaining at 5 uM measured after 30 mins in presence of NADPH; type: ADME, Microsome; settings: 0.5 h
# [7] = Microsomal stability in mouse liver microsomes assessed as parent compound remaining at 5 uM measured after 30 mins in presence of NADPH; type: ADME, Microsome; settings: 0.5 h
# Plasmodium falciparum [8] = test: Inhibition of plasmodium falciparum ARK1 assessed as remaining activity at 1 uM incubated for 2 hrs by luciferin-based luminescence assay relative to control
# Plasmodium falciparum [9] = test: Inhibition of plasmodium falciparum ARK3 assessed as remaining activity at 1 uM incubated for 2 hrs by luciferin-based luminescence assay relative to control
# Plasmodium falciparum [10] = test: Inhibition of plasmodium falciparum CDPK5 assessed as remaining activity at 1 uM incubated for 2 hrs by luciferin-based luminescence assay relative to control
# [11] = biological target: T1, Glycogen synthase kinase 3 (Plasmodium falciparum (isolate 3D7)) (UniProt O77344); test: Inhibition of plasmodium falciparum GSK3 assessed as remaining activity at 1 uM incubated for 2 hrs by luciferin-based luminescence assay relative to control
# T1 sequence (whole entry): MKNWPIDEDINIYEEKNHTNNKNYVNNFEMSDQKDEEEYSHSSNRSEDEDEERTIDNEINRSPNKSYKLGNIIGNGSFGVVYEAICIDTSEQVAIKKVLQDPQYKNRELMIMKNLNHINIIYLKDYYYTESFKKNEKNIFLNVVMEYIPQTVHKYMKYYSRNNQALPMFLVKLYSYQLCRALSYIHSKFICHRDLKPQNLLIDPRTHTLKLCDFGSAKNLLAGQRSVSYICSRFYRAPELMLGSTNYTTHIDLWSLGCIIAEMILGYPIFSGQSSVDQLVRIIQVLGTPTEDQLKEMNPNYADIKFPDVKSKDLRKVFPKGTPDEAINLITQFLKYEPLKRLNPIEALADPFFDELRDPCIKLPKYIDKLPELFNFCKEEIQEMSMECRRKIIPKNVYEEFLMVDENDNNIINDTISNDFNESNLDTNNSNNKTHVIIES
# Plasmodium falciparum [12] = test: Inhibition of plasmodium falciparum NEK1 assessed as remaining activity at 1 uM incubated for 2 hrs by luciferin-based luminescence assay relative to control
# Plasmodium falciparum [13] = test: Inhibition of plasmodium falciparum NEK3 assessed as remaining activity at 1 uM incubated for 2 hrs by luciferin-based luminescence assay relative to control
# Plasmodium falciparum [14] = test: Inhibition of plasmodium falciparum PK5 assessed as remaining activity at 1 uM incubated for 2 hrs by luciferin-based luminescence assay relative to control
# Plasmodium falciparum [15] = test: Inhibition of plasmodium falciparum PK9 assessed as remaining activity at 1 uM incubated for 2 hrs by luciferin-based luminescence assay relative to control
# Plasmodium falciparum [16] = test: Inhibition of plasmodium falciparum PKB assessed as remaining activity at 1 uM incubated for 2 hrs by luciferin-based luminescence assay relative to control
# Plasmodium falciparum [17] = test: Inhibition of plasmodium falciparum CDPK2 assessed as remaining activity at 1 uM incubated for 2 hrs by luciferin-based luminescence assay relative to control
# [18] = biological target: Calcium-dependent protein kinase 1 (Plasmodium falciparum) (UniProt P62344); test: Inhibition of plasmodium falciparum CDPK1 assessed as remaining activity at 1 uM by Kinomescan method relative to control; settings: time 2.0 hrs
# Plasmodium falciparum [19] = test: Inhibition of plasmodium falciparum PK5 assessed as remaining activity at 1 uM by Kinomescan method relative to control
# [20] = biological target: T2, Cdk-related protein kinase 6 (Plasmodium falciparum) (UniProt O77239); test: Inhibition of plasmodium falciparum PK6 assessed as remaining activity at 1 uM incubated for 2 hrs by luciferin-based luminescence assay relative to control
# T2 sequence (whole entry): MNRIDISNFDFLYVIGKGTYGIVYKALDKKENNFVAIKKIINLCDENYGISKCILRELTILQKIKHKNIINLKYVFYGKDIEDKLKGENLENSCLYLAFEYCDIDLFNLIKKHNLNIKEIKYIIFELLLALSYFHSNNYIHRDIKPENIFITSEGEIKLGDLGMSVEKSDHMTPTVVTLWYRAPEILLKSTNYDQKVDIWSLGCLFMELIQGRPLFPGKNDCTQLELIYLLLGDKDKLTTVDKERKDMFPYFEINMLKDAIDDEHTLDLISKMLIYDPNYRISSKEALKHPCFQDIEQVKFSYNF
# [21] = biological target: T3, Cdk-related protein kinase 6 (Plasmodium falciparum, UniProt O77239)
# T3 sequence (O77239 whole entry): T2 sequence (whole entry)
# Description: Inhibition of N-terminal 6His-tagged plasmodium falciparum PK6 expressed in Escherichia coli BL21(DE3) incubated for 15 mins in presence of [gamma-32p]ATP and ATP by SDS-PAGE based autoradiography analysis
# Sequence of Calcium-dependent protein kinase 1 (Plasmodium falciparum) (P62344 2-524 limits assumed): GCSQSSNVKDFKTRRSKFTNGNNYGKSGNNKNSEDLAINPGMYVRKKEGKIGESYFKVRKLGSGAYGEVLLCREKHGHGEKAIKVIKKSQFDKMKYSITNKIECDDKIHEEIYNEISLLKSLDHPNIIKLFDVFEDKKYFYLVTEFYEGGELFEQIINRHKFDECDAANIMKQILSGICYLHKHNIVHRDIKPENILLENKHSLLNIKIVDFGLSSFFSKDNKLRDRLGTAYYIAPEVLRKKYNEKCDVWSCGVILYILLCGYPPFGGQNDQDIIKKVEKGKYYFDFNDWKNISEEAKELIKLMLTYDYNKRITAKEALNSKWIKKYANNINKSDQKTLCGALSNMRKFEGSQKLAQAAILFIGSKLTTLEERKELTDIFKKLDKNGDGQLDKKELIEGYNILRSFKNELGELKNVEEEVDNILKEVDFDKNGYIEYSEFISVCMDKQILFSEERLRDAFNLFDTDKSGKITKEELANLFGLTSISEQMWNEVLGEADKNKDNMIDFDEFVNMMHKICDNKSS
compound,measurement,setting,value
COc1cc2nccc(Oc3ccc(NC(=O)Nc4ccc(OC5CCN(C)CC5)c(C(F)(F)F)c4)c(F)c3)c2cc1OC,EC50,Plasmodium falciparum [1],40 nM
same,CC50,HepG2 [2],1000 nM
same,Activity,Plasmodium berghei,inactive
same,CC50,HepG2 [3],410 nM
same,solubility kinetic,[4],1.5 µM
same,Papp,[5],< 0.513 10^-6 cm/s
same,Stability,[6],88.6%
same,Stability,[7],69.7%
same,Activity,Plasmodium falciparum [8],94%
same,Activity,Plasmodium falciparum [9],97%
same,Activity,Plasmodium falciparum [10],25%
same,Activity,[11],30%
same,Activity,Plasmodium falciparum [12],100%
same,Activity,Plasmodium falciparum [13],6%
same,Activity,Plasmodium falciparum [14],94%
same,Activity,Plasmodium falciparum [15],79%
same,Activity,Plasmodium falciparum [16],20%
same,Activity,Plasmodium falciparum [17],78%
COc1cc2nccc(Oc3ccc(NC(=O)Nc4ccc(F)cc4F)c(F)c3)c2cc1OC,Activity,Plasmodium falciparum [1],inactive
same,solubility kinetic,[4],0.7 µM
COc1cc2nccc(Oc3ccc(NC(=O)Nc4ccc(CC5CCNCC5)cc4)c(F)c3)c2cc1OC,EC50,Plasmodium falciparum [1],160 nM
same,CC50,HepG2 [2],4390 nM
same,Activity,Plasmodium berghei,inactive
same,CC50,HepG2 [3],3290 nM
same,solubility kinetic,[4],10.9 µM
same,Papp,[5],< 0.669 10^-6 cm/s
same,Stability,[7],85.8%
same,Activity,Plasmodium falciparum [8],97%
same,Activity,Plasmodium falciparum [10],91%
same,Activity,[11],97%
same,Activity,Plasmodium falciparum [12],100%
same,Activity,Plasmodium falciparum [13],82%
same,Activity,Plasmodium falciparum [14],97%
same,Activity,Plasmodium falciparum [15],99%
same,Activity,Plasmodium falciparum [16],30%
same,Activity,[18],51%
same,Activity,Plasmodium falciparum [19],84%
same,Activity,Plasmodium falciparum [17],88%
COc1cc2nccc(Oc3ccc(NC(=O)Nc4ccc(CC5CCNCC5)c(C(F)(F)F)c4)c(F)c3)c2cc1OC,EC50,Plasmodium falciparum [1],39 nM
same,CC50,HepG2 [2],1290 nM
same,EC50,"Plasmodium berghei; HepG2, 44 h",220 nM
same,CC50,HepG2 [3],1290 nM
same,solubility kinetic,[4],2.1 µM
same,Papp,[5],0.734 10^-6 cm/s
same,Stability,[6],98.1%
same,Activity,Plasmodium falciparum [8],100%
same,Activity,Plasmodium falciparum [9],87%
same,Activity,Plasmodium falciparum [10],27%
same,Activity,[11],34%
same,Activity,Plasmodium falciparum [12],100%
same,Activity,Plasmodium falciparum [13],7%
same,Activity,Plasmodium falciparum [14],94%
same,Activity,Plasmodium falciparum [15],89%
same,Activity,Plasmodium falciparum [16],21%
same,Activity,[18],1.1%
same,Activity,Plasmodium falciparum [19],80%
same,Activity,Plasmodium falciparum [17],64%
O=C(Nc1ccc(F)cc1F)Nc1ccc(Oc2ccnc3sccc23)cc1F,Activity,[20],43%
Cn1cnc2c(NCc3ccccc3)nc(NCCO)nc21 [OLOMOUCINE],IC50,[21],180000 nM
O=C(Nc1ccc(F)cc1F)Nc1ccc(Oc2ccncn2)cc1F,Activity,[20],84%
COc1ccc2nccc(Oc3ccc(NC(=O)Nc4ccc(F)cc4F)c(F)c3)c2c1,Activity,[20],24%
O=C(Nc1ccc(F)cc1F)Nc1ccc(Oc2ncnc3ccccc23)cc1F,Activity,[20],83%
COc1cc2nccc(Oc3ccc(NC(N)=O)c(F)c3)c2cc1OC,Activity,[20],28%
O=C(Nc1ccc(O)cc1F)Nc1ccc(F)cc1F,Activity,[20],100%
O=C(Nc1ccc(F)cc1F)Nc1ccc(Oc2ccnc3ccsc23)cc1F,Activity,[20],34%
COc1cc2nccc(Oc3ccc(NC(=O)Nc4ccccc4F)c(F)c3)c2cc1OC,Activity,[20],1%
COCCOc1cc2nccc(Oc3ccc(NC(=O)Nc4ccc(F)cc4F)c(F)c3)c2cc1OCCOC,Activity,[20],2%
O=C(Nc1ccc(F)cc1F)Nc1ccc(Oc2ncnc3sccc23)cc1F,Activity,[20],80%
O=C(Nc1ccc(F)cc1F)Nc1ccc(Oc2ncnc3[nH]ccc23)cc1F,Activity,[20],54%
O=C(Nc1ccc(F)cc1F)Nc1ccc(Oc2ccnc(Cl)n2)cc1F,Activity,[20],98%
COc1cc2nccc(Oc3ccc(NC(=O)Nc4ccccc4)c(F)c3)c2cc1OC,Activity,[20],1%
COc1ccc2c(Oc3ccc(NC(=O)Nc4ccc(F)cc4F)c(F)c3)ccnc2c1,Activity,[20],11%
COc1cc2nccc(Oc3ccc(N)cc3)c2cc1OC,Activity,[20],95%
O=C(Nc1ccc(F)cc1F)Nc1ccc(Oc2ccnc3cc4c(cc23)OCO4)cc1F,Activity,[20],28%
COc1cc2nccc(Oc3ccc(NC(=O)Nc4ccc(CN5CCN(C)CC5)c(C(F)(F)F)c4)c(F)c3)c2cc1OC,EC50,Plasmodium falciparum [1],110 nM
same,CC50,HepG2 [2],1000 nM
same,solubility kinetic,[4],2.1 µM
same,Papp,[5],2.57 10^-6 cm/s
same,Activity,[18],1.6%
COc1cc2nccc(Oc3ccc(NC(C)=O)c(F)c3)c2cc1OC,Activity,[20],26%
O=C(Nc1ccc(F)cc1F)Nc1ccc(Oc2ccncc2)cc1F,Activity,[20],50%
COc1cc2nccc(Oc3cccc(F)c3)c2cc1OC,Activity,[20],84%
N#Cc1cnc2ccccc2c1Oc1ccc(NC(=O)Nc2ccc(F)cc2F)c(F)c1,Activity,[20],86%
O=C(Nc1ccc(F)cc1F)Nc1ccc(Oc2ccnc3cc4c(cc23)OCCO4)cc1F,Activity,[20],30%
O=C(Nc1ccc(F)cc1F)Nc1ccc(Oc2ccnc3ccccc23)cc1F,Activity,[20],40%
O=C(Nc1ccc(F)cc1F)Nc1ccc(Oc2ccnc3cc(Cl)ccc23)cc1F,Activity,[20],38%
O=C(Nc1ccc(F)cc1F)Nc1ccc(Oc2cnnc3ccccc23)cc1F,Activity,[20],100%
COc1cc2nccc(Oc3ccc(NC(=O)Nc4ccc(C=C5CCNCC5)cc4)c(F)c3)c2cc1OC,EC50,Plasmodium falciparum [1],140 nM
same,CC50,HepG2 [2],2570 nM
same,Activity,Plasmodium berghei,inactive
same,CC50,HepG2 [3],6620 nM
same,solubility kinetic,[4],7.4 µM
same,Papp,[5],< 0.709 10^-6 cm/s
same,Stability,[6],88.6%
same,Stability,[7],86.7%
same,Activity,Plasmodium falciparum [8],98%
same,Activity,Plasmodium falciparum [10],98%
same,Activity,[11],100%
same,Activity,Plasmodium falciparum [12],100%
same,Activity,Plasmodium falciparum [13],84%
same,Activity,Plasmodium falciparum [14],100%
same,Activity,Plasmodium falciparum [16],38%
same,Activity,Plasmodium falciparum [17],96%
